In patent US12557545B2, “Compound and organic light emitting device comprising the same” (LG Chem, Ltd., priority 2020, dated 2026):

Test: Solubility experiment in cyclohexanone
Type: physicochemical
Conditions: dissolved in cyclohexanone (CHON) under normal temperature/pressure; whether 0.1 wt % or more was dissolved
Method: In order to confirm the solubility in the solvent used in the solution process of the compounds prepared in the Preparation Examples and the comparative compounds, each of them was dissolved in the solvent cyclohexanone (CHON) under normal temperature/pressure conditions, and it was confirmed whether 0.1 wt % or more was dissolved.

Q: For CC1(C)c2cc(-c3cc4ccccc4o3)ccc2-c2ccc(N(c3ccccc3)c3ccc4c5c6ccc7c(c6ccc5n(-c5ccccc5)c4c3)c3ccc(N(c4ccccc4)c4ccc5c(c4)C(C)(C)c4cc(-c6cc8ccccc8o6)ccc4-5)cc3n7-c3ccccc3)cc21 [Compound J, reference compound], which “Solvent CHON (solubility)” value is on record?
A: X (0.1 wt. % or more insoluble)

Q: Which “Solvent CHON (solubility)” value does the source give for Cc1cccc(N(c2ccc3c4c5ccc6c(c5ccc4n(-c4ccccc4)c3c2)c2ccc(N(c3ccc4c5c7ccc8c(c7ccc5n(-c5ccccc5)c4c3)c3ccc(N(c4cccc(C)c4)c4cccc5c4oc4ccccc45)cc3n8-c3ccccc3)c3cccc4c3oc3ccccc34)cc2n6-c2ccccc2)c2cccc3c2oc2ccccc23)c1 [Compound 3] here?
A: ◯ (0.1 wt. % or more soluble)

Q: With CC(C)(C)c1ccc(N(c2ccc(C(C)(C)C)cc2)c2ccc3c4c5ccc6c(c5ccc4n(-c4ccccc4)c3c2)c2ccc(N(c3ccc(C(C)(C)C)cc3)c3ccc4c5c7ccc8c(c7ccc5n(-c5ccccc5)c4c3)c3ccc(N(c4ccc(C(C)(C)C)cc4)c4ccc(C(C)(C)C)cc4)cc3n8-c3ccccc3)cc2n6-c2ccccc2)cc1 [Compound 6] as the molecule, how does the “Solvent CHON (solubility)” value read?
A: ◯ (0.1 wt. % or more soluble)

Q: With Cc1cccc(N(c2ccc3c4c5ccc6c(c5ccc4n(-c4ccccc4)c3c2)c2ccc(Oc3ccc4c5c7ccc8c(c7ccc5n(-c5ccccc5)c4c3)c3ccc(N(c4cccc(C)c4)c4cccc5c4oc4ccccc45)cc3n8-c3ccccc3)cc2n6-c2ccccc2)c2cccc3c2oc2ccccc23)c1 [Compound 17] as the molecule, how does the “Solvent CHON (solubility)” value read?
A: ◯ (0.1 wt. % or more soluble)

Q: Which “Solvent CHON (solubility)” value does the source give for Cc1cccc(N(c2ccc3c4c5ccc6c(c5ccc4n(-c4ccccc4)c3c2)c2ccc(N(c3ccc(-c4cc5ccccc5o4)cc3)c3ccc4c5c7ccc8c(c7ccc5n(-c5ccccc5)c4c3)c3ccc(N(c4cccc(C)c4)c4cccc5c4oc4ccccc45)cc3n8-c3ccccc3)cc2n6-c2ccccc2)c2cccc3c2oc2ccccc23)c1 [Compound 5] here?
A: ◯ (0.1 wt. % or more soluble)

Q: Which “Solvent CHON (solubility)” value does the source give for Cc1cccc(N(c2ccc3c4c5ccc6c(c5ccc4n(-c4ccccc4)c3c2)c2ccc(N(c3cccc(C)c3)c3cccc4c3oc3ccccc34)cc2n6-c2ccccc2)c2ccc3c4c5ccc6c(c5ccc4n(-c4ccccc4)c3c2)c2ccc(N(c3cccc(C)c3)c3cccc4c3oc3ccccc34)cc2n6-c2ccccc2)c1 [Compound 2] here?
A: ◯ (0.1 wt. % or more soluble)

Q: For CC(C)(C)c1ccc(N(c2ccc3c4c5ccc6c(c5ccc4n(-c4ccccc4)c3c2)c2ccc(N(c3ccccc3)c3ccc4ccccc4c3)cc2n6-c2ccccc2)c2ccc3c4c5ccc6c(c5ccc4n(-c4ccccc4)c3c2)c2ccc(N(c3ccccc3)c3ccc4ccccc4c3)cc2n6-c2ccccc2)cc1 [Compound 13], which “Solvent CHON (solubility)” value is on record?
A: ◯ (0.1 wt. % or more soluble)

Q: With Cc1cccc(N(c2ccc3c4c5ccc6c(c5ccc4n(-c4ccccc4)c3c2)c2ccc(-c3ccc(-c4ccc5c7c8ccc9c(c8ccc7n(-c7ccccc7)c5c4)c4ccc(N(c5cccc(C)c5)c5cccc7c5oc5ccccc57)cc4n9-c4ccccc4)cc3)cc2n6-c2ccccc2)c2cccc3c2oc2ccccc23)c1 [Compound 14] as the molecule, how does the “Solvent CHON (solubility)” value read?
A: ◯ (0.1 wt. % or more soluble)

Q: With Cc1cccc(N(c2ccc3c(c2)c2c4ccc5c(c4ccc2n3-c2ccccc2)c2cc(N(c3ccc(C(C)(C)C)cc3)c3ccc4c(c3)c3c6ccc7c(c6ccc3n4-c3ccccc3)c3cc(N(c4cccc(C)c4)c4cccc6c4oc4ccccc46)ccc3n7-c3ccccc3)ccc2n5-c2ccccc2)c2cccc3c2oc2ccccc23)c1 [Compound 19] as the molecule, how does the “Solvent CHON (solubility)” value read?
A: ◯ (0.1 wt. % or more soluble)

Q: Which “Solvent CHON (solubility)” value does the source give for Cc1cccc(N(c2ccc3c4c5ccc6c(c5ccc4n(-c4ccccc4)c3c2)c2ccc(-c3ccc4c5c7ccc8c(c7ccc5n(-c5ccccc5)c4c3)c3ccc(N(c4cccc(C)c4)c4cccc5c4oc4ccccc45)cc3n8-c3ccccc3)cc2n6-c2ccccc2)c2cccc3c2oc2ccccc23)c1 [Compound 16] here?
A: ◯ (0.1 wt. % or more soluble)

Q: Which “Solvent CHON (solubility)” value does the source give for Cc1cccc(N(c2ccc3c4c5ccc6c(c5ccc4n(-c4ccccc4)c3c2)c2ccc(N(c3ccccc3)c3ccc4c5c7ccc8c(c7ccc5n(-c5ccccc5)c4c3)c3ccc(N(c4cccc(C)c4)c4cccc5c4oc4ccccc45)cc3n8-c3ccccc3)cc2n6-c2ccccc2)c2cccc3c2oc2ccccc23)c1 [Compound 4] here?
A: ◯ (0.1 wt. % or more soluble)

Q: For CC(C)(C)c1ccc(N(c2ccc(C(C)(C)C)cc2)c2ccc3c4c5ccc6c(c5ccc4n(-c4ccccc4)c3c2)c2ccc(N(c3ccc4c5c7ccc8c(c7ccc5n(-c5ccccc5)c4c3)c3ccc(N(c4ccc(C(C)(C)C)cc4)c4ccc(C(C)(C)C)cc4)cc3n8-c3ccccc3)c3cccc4c3oc3ccccc34)cc2n6-c2ccccc2)cc1 [Compound 7], which “Solvent CHON (solubility)” value is on record?
A: ◯ (0.1 wt. % or more soluble)

Q: For Cc1cccc(N(c2cccc3c2oc2ccccc23)c2cccc3c2c2c4ccc5c(c4ccc2n3-c2ccccc2)c2c(N(c3ccc(C(C)(C)C)cc3)c3cccc4c3c3c6ccc7c(c6ccc3n4-c3ccccc3)c3c(N(c4cccc(C)c4)c4cccc6c4oc4ccccc46)cccc3n7-c3ccccc3)cccc2n5-c2ccccc2)c1 [Compound 21], which “Solvent CHON (solubility)” value is on record?
A: ◯ (0.1 wt. % or more soluble)

Q: For CC(C)(C)c1ccc(N(c2ccc3c4c5ccc6c(c5ccc4n(-c4ccccc4)c3c2)c2ccc(N(c3ccccc3)c3ccccc3)cc2n6-c2ccccc2)c2ccc3c4c5ccc6c(c5ccc4n(-c4ccccc4)c3c2)c2ccc(N(c3ccccc3)c3ccccc3)cc2n6-c2ccccc2)cc1 [Compound 11], which “Solvent CHON (solubility)” value is on record?
A: ◯ (0.1 wt. % or more soluble)

Q: Which “Solvent CHON (solubility)” value does the source give for Cc1cccc(N(c2ccc3c4c5ccc6c(c5ccc4n(-c4ccccc4)c3c2)c2ccc(-c3cccc(-c4ccc5c7c8ccc9c(c8ccc7n(-c7ccccc7)c5c4)c4ccc(N(c5cccc(C)c5)c5cccc7c5oc5ccccc57)cc4n9-c4ccccc4)c3)cc2n6-c2ccccc2)c2cccc3c2oc2ccccc23)c1 [Compound 15] here?
A: ◯ (0.1 wt. % or more soluble)

Q: Which “Solvent CHON (solubility)” value does the source give for CC(C)(C)c1ccc(N(c2ccc(C(C)(C)C)cc2)c2ccc3c4c5ccc6c(c5ccc4n(-c4ccccc4)c3c2)c2ccc(N(c3ccc(-c4cc5ccccc5o4)cc3)c3ccc4c5c7ccc8c(c7ccc5n(-c5ccccc5)c4c3)c3ccc(N(c4ccc(C(C)(C)C)cc4)c4ccc(C(C)(C)C)cc4)cc3n8-c3ccccc3)cc2n6-c2ccccc2)cc1 [Compound 8] here?
A: ◯ (0.1 wt. % or more soluble)

Q: Which “Solvent CHON (solubility)” value does the source give for CC(C)(C)c1ccc(N(c2ccc3c4c5ccc6c(c5ccc4n(-c4ccccc4)c3c2)c2ccc(N(c3ccc(-c4ccc5c(c4)c4ccccc4n5-c4ccccc4)cc3)c3ccc4ccccc4c3)cc2n6-c2ccccc2)c2ccc3c4c5ccc6c(c5ccc4n(-c4ccccc4)c3c2)c2ccc(N(c3ccc(-c4ccc5c(c4)c4ccccc4n5-c4ccccc4)cc3)c3ccc4ccccc4c3)cc2n6-c2ccccc2)cc1 [Compound 9] here?
A: ◯ (0.1 wt. % or more soluble)

Q: For CC(C)(C)c1ccc(N(c2ccc3c4c5ccc6c(c5ccc4n(-c4ccccc4)c3c2)c2ccc(N(c3ccccc3)c3ccc4cc(-c5cc7ccccc7o5)ccc4c3)cc2n6-c2ccccc2)c2ccc3c4c5ccc6c(c5ccc4n(-c4ccccc4)c3c2)c2ccc(N(c3ccccc3)c3ccc4cc(-c5cc7ccccc7o5)ccc4c3)cc2n6-c2ccccc2)cc1 [Compound 10], which “Solvent CHON (solubility)” value is on record?
A: ◯ (0.1 wt. % or more soluble)

Q: With c1ccc(N(c2ccccc2)c2ccc3c4c5ccc6c(c5ccc4n(-c4ccccc4)c3c2)c2ccc(N(c3ccc4cc(-c5cc7ccccc7o5)ccc4c3)c3ccc4c5c7ccc8c(c7ccc5n(-c5ccccc5)c4c3)c3ccc(N(c4ccccc4)c4ccccc4)cc3n8-c3ccccc3)cc2n6-c2ccccc2)cc1 [Compound 12] as the molecule, how does the “Solvent CHON (solubility)” value read?
A: ◯ (0.1 wt. % or more soluble)

Q: With Cc1cccc(N(c2ccc3c4c5ccc6c(c5ccc4n(-c4ccccc4)c3c2)c2ccc(N(c3ccc(C(C)(C)C)cc3)c3ccc4c5c7ccc8c(c7ccc5n(-c5ccccc5)c4c3)c3ccc(N(c4cccc(C)c4)c4cccc5c4oc4ccccc45)cc3n8-c3ccccc3)cc2n6-c2ccccc2)c2cccc3c2oc2ccccc23)c1 [Compound 1] as the molecule, how does the “Solvent CHON (solubility)” value read?
A: ◯ (0.1 wt. % or more soluble)
